Laboratory results: the NIST ThermoML archive (doi:10.1016/j.fluid.2015.08.029)
Numbers after ± are expanded uncertainties.

Assay: xn = mol fraction of the nth substance listed
Conditions: Fluid (supercritical or subcritical phases), Buoyancy - hydrostatic balance with magnetic suspension - one sinker, x2 = 0.95

C [methane] + O=C=O
Conditions	mass density [kg/m3]
305.16 K, 9767.1 kPa	617.141 ± 1.5
305.16 K, 9967.5 kPa	629.726 ± 1.3
305.17 K, 9370.3 kPa	584.841 ± 1.9
306.1 K, 7971 kPa	291.729 ± 1.4
306.14 K, 8569.3 kPa	407.211 ± 3.1
306.15 K, 8769.4 kPa	456.137 ± 3.2
306.15 K, 9367.9 kPa	559.009 ± 2.1
306.15 K, 9567.4 kPa	580.099 ± 1.8
306.15 K, 9767.6 kPa	597.343 ± 1.6
306.16 K, 9168.1 kPa	532.249 ± 2.5
306.17 K, 8170.1 kPa	321.108 ± 1.9
306.17 K, 8969 kPa	498.232 ± 2.9
306.17 K, 9967.5 kPa	611.559 ± 1.5
306.18 K, 8370.6 kPa	359.348 ± 2.5
307.11 K, 7970.8 kPa	279.021 ± 1.2
307.15 K, 8769.2 kPa	417.545 ± 2.9
307.15 K, 9369.4 kPa	530.475 ± 2.3
307.15 K, 9968.3 kPa	592.558 ± 1.6
307.16 K, 8569.4 kPa	373.594 ± 2.5
307.16 K, 9769.9 kPa	575.499 ± 1.8
307.17 K, 8370.1 kPa	335.111 ± 1.9
307.17 K, 9567.7 kPa	554.846 ± 2
307.18 K, 8170.2 kPa	303.687 ± 1.5
307.18 K, 8969.6 kPa	460.414 ± 2.9
307.19 K, 9168.1 kPa	498.151 ± 2.7
308.14 K, 7971.8 kPa	268.365 ± 1
308.15 K, 8969.6 kPa	425.843 ± 2.7
308.16 K, 8773.5 kPa	385.91 ± 2.4
308.16 K, 9568.1 kPa	527.899 ± 2.2
308.16 K, 9772 kPa	552.011 ± 1.9
308.16 K, 9967.3 kPa	570.979 ± 1.7
308.17 K, 8171.2 kPa	290.106 ± 1.2
308.17 K, 8372.6 kPa	316.707 ± 1.5
308.17 K, 9169 kPa	464.65 ± 2.7
308.17 K, 9368.5 kPa	499.11 ± 2.4
308.18 K, 8570.3 kPa	347.84 ± 2
309.13 K, 7972 kPa	259.723 ± 0.88
309.15 K, 8969.7 kPa	395.876 ± 2.3
309.15 K, 9967.3 kPa	548.766 ± 1.8
309.16 K, 9568.6 kPa	499.83 ± 2.2
309.16 K, 9768.9 kPa	526.36 ± 2
309.17 K, 8171 kPa	279.024 ± 1
309.17 K, 8570.8 kPa	328.632 ± 1.6
309.17 K, 8772.2 kPa	360.359 ± 2
309.17 K, 9170.1 kPa	432.906 ± 2.5
309.17 K, 9369 kPa	468.272 ± 2.4
309.18 K, 8371.4 kPa	301.81 ± 1.3
310.13 K, 7971.6 kPa	252.206 ± 0.8
310.15 K, 9168.8 kPa	404.887 ± 2.2
310.15 K, 9768.4 kPa	500.279 ± 2.1
310.16 K, 9368.7 kPa	438.984 ± 2.3
310.17 K, 8169.9 kPa	269.525 ± 0.91
310.17 K, 8371.3 kPa	289.994 ± 1.1
310.17 K, 8570.5 kPa	313.293 ± 1.3
310.17 K, 8969.4 kPa	370.784 ± 1.9
310.17 K, 9568.2 kPa	470.935 ± 2.2
310.17 K, 9969.4 kPa	524.504 ± 1.9
310.18 K, 8771.3 kPa	340.177 ± 1.6
311.13 K, 7972.7 kPa	245.539 ± 0.72
311.15 K, 8969.4 kPa	351.047 ± 1.6
311.16 K, 9169.2 kPa	380.674 ± 1.9
311.17 K, 8170.7 kPa	261.395 ± 0.82
311.17 K, 8372.1 kPa	279.845 ± 0.96
311.17 K, 8571.3 kPa	300.517 ± 1.1
311.17 K, 9768.1 kPa	473.276 ± 2.1
311.17 K, 9967.8 kPa	499.737 ± 2
311.18 K, 9568.6 kPa	443.32 ± 2.1
311.19 K, 8770.5 kPa	323.691 ± 1.4
311.19 K, 9369 kPa	411.617 ± 2.1
312.13 K, 7972.4 kPa	239.656 ± 0.67
312.17 K, 8771.1 kPa	310.807 ± 1.2
312.17 K, 9568.6 kPa	418.783 ± 1.9
312.17 K, 9768.9 kPa	448.071 ± 2
312.17 K, 9967.7 kPa	475.106 ± 2
312.18 K, 8571.5 kPa	289.726 ± 0.99
312.18 K, 9169.8 kPa	360.525 ± 1.6
312.19 K, 8172.7 kPa	254.332 ± 0.74
312.19 K, 8372.2 kPa	270.995 ± 0.85
312.19 K, 8970.5 kPa	334.208 ± 1.4
312.19 K, 9369.6 kPa	388.871 ± 1.8
313.14 K, 7973.3 kPa	234.195 ± 0.64
313.17 K, 8571.8 kPa	280.559 ± 0.88
313.17 K, 8771.6 kPa	299.532 ± 1
313.17 K, 8970.6 kPa	320.608 ± 1.2
313.17 K, 9170.2 kPa	344.172 ± 1.4
313.17 K, 9369.7 kPa	369.68 ± 1.6
313.17 K, 9768.4 kPa	424.626 ± 1.9
313.18 K, 8171.5 kPa	247.96 ± 0.68
313.18 K, 8372.5 kPa	263.421 ± 0.77
313.18 K, 9569.1 kPa	396.668 ± 1.8
